# According to patent US7700553B2, “Selective inhibition of NF-κB activation by peptides designed to disrupt nemo oligomerization” (priority 2003, dated 2010):
# pKd: −log10 of the molar value. Ends that are not written are not given here. Peptide text beside a SMILES is read from it. * marks the point of attachment. BODIPYFLEthylmaleimide = Cc1cc(C)n2c1C=C1C=CC(CCC(=O)NCCN3C(=O)CC(*)C3=O)=[N+]1[B-]2(F)F; BODIPY = not defined here; Cam = NC(=O)C*
# Key:
# [1] = tested on: lymphocytes B; assay: Cytotoxicity by MTS assay, microscope observation and FACS; conditions: for Cytotoxicity MTS Assay: MTS cell proliferation assay (Promega); for cellular proportion of cell death by FACS: pre-B lymphocytes, 20 μM
# [2] = tested on: human retinoblastoma cell lines Y79; format: cell-based; conditions: for Y79 cell died: 5 μM
# Protocol: FIG. 8: Cell Death Induced in the Retinoblastoma Cell Line Y79 by Ant-CC2 and Ant-LZ Peptides Rb cell line Y79 were treated with various concentration of the Ant-CC2 (WT) (filled squares) or Ant-CC2 (Mu) (open squares) (A), or Ant-LZ (WT) (filled circles), or Ant-LZ (Mu) (open circles) (B), or Ant peptide (open triangle) (C) for 3 hours (A, B) or 16 hours (C). Cell survival was then evaluated using the MTS assay as described in “Materials and methods”
# The detection of cell death was performed using the MTS assay provided by Promega (CellTiter 96® AQueous one solution cell proliferation assay). Briefly, 0.3×10^6 Y79 cells in 450 μl were treated with 50 μl of the wild type Ant-CC2 and Ant-LZ peptides (0.1 to 20 μM) or their mutants Ant-CC2 (Mu), Ant-LZ (Mu) or the Ant or left untreated in serum-free RPMI medium at 37° C. After an incubation of […], an aliquot of the cell suspension (200 μl, 0.12×10^6 cells), was then transferee in 96-well plates and mixed with the MTS solution (40 μl) containing the MTS compound and the phenazine ethosulfate. Two hours after, the quantity of formazan produced by viable cells was measured using an automated microplate reader (Bio-TeK Instruments, INC) at 490 nm absorbance. Cell survival was observed under microscope and was estimated as a percentage of the value of untreated controls. The background of the reaction was determined by mixing the MTS solution with cell-free RPMI medium. To increase the sensitivity of the cell death assay, the present inventors used peptides devoid of BODIPY-labeling because the absorption spectra of the fluorophor overlaps with that of the formazan product. All experiments were repeated twice and each experiment condition was repeated in duplicate wells in each experiment.
# Given that specific NF-κB inhibition may trigger apoptosis of cancer cells, the present inventors examined the effects of both cell-permeable Ant-LZ and Ant-CC2 peptides on human retinoblastoma cell viability. In these experiments, the present inventors used NEMO-derived polypeptides without a N-terminal BODIPY labeling to prevent any interference with the MTS assay (see “Materials and Methods”). […] The effect of the Ant-LZ peptide on cell death was stronger than that of the Ant-CC2. This induction of cell death was significant since Rb cell survival was 20% and 65% with the Ant-LZ and the Ant-CC2 peptides respectively when cancer cells were treated for 3 hours at a 20 μM concentration. […] In contrast, 80% and 55% of Y79 cell died in the presence of Ant-LZ and Ant-CC2 respectively at 5 μM concentration (FIG. 8C).
# [3] = tested on: 70Z/3-C3 cells; assay: FACS analysis of cellular uptake of BODIPY-labeled peptides; format: cell-based, murine; conditions: 2 μM BODIPY-peptide, 2 h at 37° C.
# Protocol: All experiments were performed in duplicates.
# The uptake of BODIPY labeled NEMO peptides into living cells were monitored by fluorescence activated cell sorting (FACS) which is a conventional tool used to quantify cellular internalization.
# Then present inventors next investigated the kinetic and concentration dependency of cellular uptake for the Ant-CC2 BODIPY peptide keeping in mind that the transduction of other NEMO peptides should occur in a similar fashion (FIGS. 2B and 2C).
# [4] = tested on: LPS-induced NF-κB activation in 70Z/3-C3 cells; assay: NF-κB inhibition assay, first procedure (NF-κB dependent β-galactosidase reporter, LPS stimulation); format: cell-based, murine; conditions: for effect on LPS-induced NF-κB activation (in words): 20 μM peptide, 2 h, then 5 h LPS; for effect on LPS-induced NF-κB activation of peptides not fused to antennapedia (in words): 2 h peptide, then 3 h LPS (FIG. 3D)
# Protocol: The resulting cell line, 70Z3-C3, was incubated for 2 hours in the absence or in the presence of 20 μM of antennapedia peptide (Ant), or BODIPY-labeled antennapedia peptide (BODIPY-Ant), or BODIPY-labeled antennapedia peptide coupled to CC2 (BODIPY-Ant-CC2) or LZ (BODIPY-Ant-LZ) peptides, After peptide internalization, cells were treated for 5 hours with LPS (3 μg/ml, (+) in left panel) or untreated (right panel and (−) in left panel) and the NF-κB activity was measured by β-galactosidase assay. […] Cells were treated as in (A) but with different concentration of peptide as indicated. The potential of each peptide to inhibit LPS-induced NF-κB activation was measured by determining the IC50 value that correspond to 50% inhibition of LPS-induced NF-κB activation as compared to the control (no peptide) (C). […] Control (no peptide) or CC2, or LZ peptides, with (BODIPY-ANT-CC2, BODIPY-ANT-LZ) or without the antennapedia sequence at the N-terminus (CC2, LZ) were incubated for 2 hours with 70Z3-C3 cells followed with (+) or without (−) the LPS-treatment for 3 hours. NF-κB activity was then measured by β-galactosidase assay.
# In a first procedure 2.2×10^5 70Z/3-C3 cells in 220 μl of RPMI 1640 supplemented with 10% fetal calf serum (FCS) and 50 μM β-mercaptoethanol were placed in a 96-well plate and incubated with various concentrations of peptide (0 to 20 μM) at 37° C. in 5% CO2 incubator. After two hours an equal portion (100 μl) of each cell sample transferred in two wells containing each 10^5 cells. One aliquot of cells was then treated for 5 hours with lipopolysaccharides from Salmonella abortus (Sigma) at 0.5 μg/ml final concentration, and the other one left-treated. After 5 hours, cells were centrifuged at 400×g for 5 min at room temperature and the cell pellets were washed three times with cold PBS (250 μl) by centrifugation. Cells were then lysed in the lysis buffer (25 mM tris-phosphate buffer at pH 7.8 containing 8 mM magnesium chloride, 1 mM dithioerythreitol, 1% Triton X-100, 15% glycerol and a protease inhibitor mixture (Roche)), and samples were centrifuged at 4° C. for 20 min to clarify the lysate. The supernatant was then kept on ice, and 30 μl was then assayed to measure the β-galactosidase activity with a plate luminometer (Berthold) using the galacton-star as chemiluminescent substrate (BD Biosciences Clontech, Bronstein et al., 1989). Background of reaction was measured by mixing for 1 hour 30 μl of lysis buffer with the reaction buffer (196 μl) and the galacton-star substrate (4 μl) provided by BD Biosciences.
# [5] = Kd and cooperativity indice of NLM peptides by Hill coefficient calculation; format: binding; conditions: for pKd: Hill equation fit, read-out: dissociation constant Kd
# Text: The present inventors compared NLM-DR to the corresponding NLM peptide by measuring the respective cooperativity indices, which evidence an advantage of NLM-DR mutated peptide over the wild-type.
# The calculation of the “cooperativity indice” by means of Hill coefficient is based on the following formula Boundmax×L^n/(KD^n+L^n)
# Boundmax is the maximum concentration of the bound ligand,
# L is the concentration of the free ligand,
# n is the cooperativity indice and
# KD, is the affinity constant of the ligand by the protein.
# If these values were to be compared to those obtained from the curves without accounting for cooperativity, the affinity of NLM-DR peptide would be 75 times higher than the affinity of wild-type NLM peptide.
# [6] = longer treatment (FIG. 8C, 16 hours)
compound,measurement,setting,value
CC[C@H](C)[C@H](NC(=O)[C@H](CC(=O)O)NC(=O)[C@H](C)NC(=O)[C@H](CCC(N)=O)NC(=O)[C@H](C)NC(=O)[C@H](CCCCN)NC(=O)[C@H](CC(C)C)NC(=O)[C@H](CCCNC(=N)N)NC(=O)[C@H](CCCNC(=N)N)NC(=O)[C@H](CCCNC(=N)N)NC(=O)[C@H](CCC(N)=O)NC(=O)[C@H](CCCNC(=N)N)NC(=O)[C@H](CCCNC(=N)N)NC(=O)[C@H](CCCCN)NC(=O)[C@H](CCCCN)NC(=O)[C@H](CCCNC(=N)N)NC(=O)CNC(=O)[C@H](Cc1ccc(O)cc1)NC(=O)[C@H](CSC1CC(=O)N(CCNC(=O)CCC2=[N+]3C(=Cc4c(C)cc(C)n4[B-]3(F)F)C=C2)C1=O)NC(C)=O)C(=O)N[C@@H](Cc1ccc(O)cc1)C(=O)N[C@@H](CCCCN)C(=O)N[C@@H](C)C(=O)N[C@@H](CCCNC(=N)N)C(=O)N[C@@H](Cc1ccccc1)C(=O)N[C@@H](CCC(N)=O)C(=O)N[C@@H](C)C(=O)N[C@@H](CCC(=O)O)C(=O)N[C@@H](CCCNC(=N)N)C(=O)N[C@@H](Cc1c[nH]cn1)C(=O)N[C@@H](C)C(=O)N[C@@H](CCCNC(=N)N)C(=O)N[C@@H](CCC(=O)O)C(=O)N[C@@H](CCCCN)C(N)=O (stereo partly shown) [BODIPY-TAT-NLM-DR] (Ac-C(BODIPYFLEthylmaleimide)YGRKKRRQRRRLKAQADIYKARFQAERHAREK-NH2),Cytotoxicity Cell morphology FACS,[1],no
same,Cytotoxicity MTS Assay,[1],no
same,Cytotoxicity Cell morphology Microscope,[1],no
Ac-C(Cam)RQIKIWFQNRRMKWKKSKGMQLEDLRQQLQQAEEALVAKQELIDKLKEEAEQHKIV-NH2 [Ant-CC2],cellular proportion of cell death by FACS,[1]; absence of stimuli,9%
same,cellular proportion of cell death by FACS,[1]; after LPS stimulation,13%
same,Y79 cell died,[2]; [6],55%
same,proportion of cells transduced,[3],100%
Ac-CRQIKIWFQNRRMKWKKLKAQADIYKADFQAERHAREKLVEKKEYLQEQLEQLQREFNKL-NH2 [Ant-LZ],Y79 cell died,[2]; [6],80%
same,proportion of cells transduced,[3],100%
Ant-CC2 (Mu): mutant Ant-CC2 devoid of BODIPY-labeling (sequence of SEQ ID NO: 4) (Ac-CRQIKIWFQNRRMKWKKSKGMQLEDLRQQGQQAEEAGVAKQELGDKLKEEAEQHKIV-NH2; not fully specified (residue 1)),induction of cell death (in words),"[2]; Y79 cells, 3 hours, mutant peptides",did not induce concentration cell death
same,proportion of cells transduced,[3],100%
Ant-LZ (Mu): mutant Ant-LZ devoid of BODIPY-labeling (sequence of SEQ ID NO: 8) (Ac-CRQIKIWFQNRRMKWKKLKAQADIYKADFQAERHAREKLVEKKEYSQEQLEQSQREFNKL-NH2; not fully specified (residue 1)),proportion of cells transduced,[3],100%
"Ant: third helix of the Antennapedia/penetratin protein, internalization peptide (SEQ ID NO: 1), without BODIPY label (CRQIKIWFQNRRMKWKK) [reference compound]",effect on LPS-induced NF-κB activation (in words),[4],same level of NF-κB activation as the control
same,effect on cell survival (in words),"[2]; Y79 cells, longer treatment (FIG. 8C, 16 hours)",did not affect cell survival
"B-CRQIKIWFQNRRMKWKK ({BODIPY}-CRQIKIWFQNRRMKWKK; reading uncertain) [BODIPY-Ant, reference compound]",effect on LPS-induced NF-κB activation (in words),[4],same level of NF-κB activation as the control
B-CRQIKIWFQNRRMKWKKLAQADIYKARFQAERHAREK (CRQIKIWFQNRRMKWKKLKAQADIYKARFQAERHAREK; not fully specified (N-terminus)) [BODIPY-Ant-NLM-DR],Cytotoxicity Cell morphology FACS,[1],+
same,Cytotoxicity MTS Assay,[1],no
same,Cytotoxicity Cell morphology Microscope,[1],+
B-CRRRRRRRLKAQAKIYKARFQAERHAREK [BODIPY-R7-NLM-DR] (CRRRRRRRLKAQADIYKARFQAERHAREK; not fully specified (N-terminus)),Cytotoxicity Cell morphology FACS,[1],no
same,Cytotoxicity Cell morphology Microscope,[1],no
B-CRRRRRRRLKAQAKIYKARFQAERHAREK [BODIPY-R9-NLM-DR] (CRRRRRRRRRLKAQADIYKARFQAERHAREK; not fully specified (N-terminus)),Cytotoxicity Cell morphology FACS,[1],no
same,Cytotoxicity MTS Assay,[1],no
same,Cytotoxicity Cell morphology Microscope,[1],no
LKAQADIYKADFQAERHAREKLVEKKEYLQEQLEQLQREFNKL [LZ (WT)],effect on LPS-induced NF-κB activation of peptides not fused to antennapedia (in words),[4],same level of activation as the control
LKAQADIYKARFQAERHAREK [NLM-DR],pKd,[5],3.77
same,affinity of NLM-DR peptide relative to wild-type NLM peptide,[5]; values compared without accounting for cooperativity,75 times
NLM: corresponding wild type NLM peptide covering the same 21 amino acid range as NLM-DR (LKAQADIYKADFQAERHAREK-NH2; not fully specified (N-terminus)),pKd,[5],3.62
SKGMQLEDLRQQLQQAEEALVAKQELIDKLKEEAEQHKIV [CC2 (WT)],effect on LPS-induced NF-κB activation of peptides not fused to antennapedia (in words),[4],same level of activation as the control
